Results as given in patent US11648289B2, “Antibacterial method” (priority 2016, dated 2023).
No end group written: not given here.

System: KAVA
Assay: MIC microtitre plate assay, pathogenic isolates
Type: cell-based
Conditions: KAVA
Method: The tested strains were obtained from the LMG collection. […] NisinZ and micrococcin P1 were purified from source. […] Garvicin KS is made up of 3 peptides:
Bacteriocin activity was determined using a microtitre plate assay. The plates were incubated at 30° C. for 8 h and the growth was measured spectrophotometrically at 600 nm (A600) with 15 min intervals using SPECTROstarNano (BMG LABTECH, Germany).

MLAKIKAMIKKFPNPYTLAAKLTTYEINWYKQQYGRYPWERPVA [EntEJ97]
MIC: >50 µg/mL
